Results taken from patent US12692254B2, “Benzimidazole inhibitors of PAD enzymes” (BRISTOL-MYERS SQUIBB COMPANY, priority 2018, dated 2026).

Target: human PAD4 (hPAD4) (Homo sapiens, UniProt Q9UM07)
Assay: RFMS human PAD4 functional assay (rapid-fire mass spectrum)
Assay type: biochemical
Conditions: 5 nM hPAD4 enzyme, 250 μM BAEE, 50 μM Calcium; 30 min preincubation, 90 min reaction at 37° C.
Outline: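 PAD4 (10 nM) preincubated 30 min with compound (top final 50 μM), then BAEE substrate added in pH 7.5 HEPES buffer with DTT, 50 μM calcium, TPEN; 90 min at 37° C. After TCA quench, citrulline derivatized with phenyl glyoxal (4 mM final, 30 min, 37° C) and quantified by RapidFire MS against internal standard.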

human PAD4 (hPAD4), sequence (Q9UM07 whole entry): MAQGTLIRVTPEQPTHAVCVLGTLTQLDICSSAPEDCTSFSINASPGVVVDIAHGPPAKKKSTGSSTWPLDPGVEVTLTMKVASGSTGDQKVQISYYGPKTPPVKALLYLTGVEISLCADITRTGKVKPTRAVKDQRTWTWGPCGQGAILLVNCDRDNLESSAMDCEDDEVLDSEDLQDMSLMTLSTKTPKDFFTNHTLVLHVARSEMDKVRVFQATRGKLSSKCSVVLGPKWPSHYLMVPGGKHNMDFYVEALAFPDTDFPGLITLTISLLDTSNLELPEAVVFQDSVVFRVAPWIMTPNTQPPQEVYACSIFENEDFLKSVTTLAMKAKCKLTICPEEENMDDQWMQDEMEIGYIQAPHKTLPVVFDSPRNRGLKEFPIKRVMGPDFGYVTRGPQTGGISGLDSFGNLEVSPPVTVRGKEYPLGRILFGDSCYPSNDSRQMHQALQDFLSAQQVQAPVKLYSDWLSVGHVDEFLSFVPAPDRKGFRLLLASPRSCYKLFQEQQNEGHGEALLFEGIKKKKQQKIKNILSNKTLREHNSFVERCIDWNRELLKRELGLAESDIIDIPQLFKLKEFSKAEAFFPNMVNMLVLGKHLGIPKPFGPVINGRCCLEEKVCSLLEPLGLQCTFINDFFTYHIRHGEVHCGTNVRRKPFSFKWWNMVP

## COc1cc(C(=O)N2C[C@H]3CC[C@@H]2[C@@H]3N)cc2nc(-c3cc4cccnc4n3CC3CC3)n(C3CCNCC3)c12 [Example 309, (1R,4R,7R)-2-{2-[1-(cyclopropylmethyl)-1H-pyrrolo[2,3-b]pyridin-2-yl]-7-methoxy-1-(piperidin-4-yl)-1H-1,3-benzodiazole-5-carbonyl}-2-azabicyclo[2.2.1]heptan-7-amine]
  IC50: 1160 nM

## N#Cc1ccc(C(=O)N2CC(Cn3c(-c4cc5ccccc5n4CC4CC4)nc4cc(C(=O)N5C[C@H]6CC[C@@H]5[C@@H]6N)ccc43)C2)cc1 [Example 165, 4-[3-({5-[(1R,4R,7R)-7-amino-2-azabicyclo[2.2.1]heptane-2-carbonyl]-2-[1-(cyclopropylmethyl)-1H-indol-2-yl]-1H-1,3-benzodiazol-1-yl}methyl)azetidine-1-carbonyl]benzonitrile]
  IC50: 30 nM

## COc1cc(C(=O)N2CC3CCC2[C@@H]3N)cc2nc(-c3cc4cccnc4n3CC3CC3)n(CC3CN(C(=O)c4ccc(F)cc4)C3)c12 (stereo partly drawn) [Example 447, (7R)-2-{2-[1-(cyclopropylmethyl)-1H-pyrrolo[2,3-b]pyridin-2-yl]-1-{[1-(4-fluorobenzoyl)azetidin-3-yl]methyl}-7-methoxy-1H-1,3-benzodiazole-5-carbonyl}-2-azabicyclo[2.2.1]heptan-7-amine]
  IC50: 43 nM

## COc1cc(C(=O)N2CC3CCC2[C@@H]3N)cc2nc(-c3cc4ccccc4n3CC3CC3)n(Cc3cnn(-c4ccnc(N)c4)c3)c12 (stereo partly drawn) [Example 361, (7R)-2-(1-{[1-(2-aminopyridin-4-yl)-1H-pyrazol-4-yl]methyl}-2-[1-(cyclopropylmethyl)-1H-indol-2-yl]-7-methoxy-1H-1,3-benzodiazole-5-carbonyl)-2-azabicyclo[2.2.1]heptan-7-amine]
  IC50: 25 nM

## COc1cc(C(=O)N2C[C@H](N)C[C@@H](F)C2)cc2nc(-c3cc4cccnc4n3CC3CC3)n(Cc3cnn(-c4cccnc4O)c3)c12 [Example 382, 3-[4-({5-[(3R,5R)-3-amino-5-fluoropiperidine-1-carbonyl]-2-[1-(cyclopropylmethyl)-1H-pyrrolo[2,3-b]pyridin-2-yl]-7-methoxy-1H-1,3-benzodiazol-1-yl}methyl)-1H-pyrazol-1-yl]pyridin-2-ol]
  IC50: 41 nM

## COc1cc(C(=O)N2C[C@H](N)C[C@@H](F)C2)cc2nc(-c3cc4cccnc4n3CC3CC3)n(Cc3cn[nH]c3)c12 [Example 500, (3R,5R)-1-{2-[1-(cyclopropylmethyl)-1H-pyrrolo[2,3-b]pyridin-2-yl]-7-methoxy-1-[(1H-pyrazol-4-yl)methyl]-1H-1,3-benzodiazole-5-carbonyl}-5-fluoropiperidin-3-amine]
  IC50: 127 nM

## COc1nccc(N2CC(Cn3c(-c4cc5cccnc5n4CC4CC4)nc4cc(C(=O)N5C[C@H]6CC[C@@H]5[C@@H]6N)cc(OC)c43)C2)n1 [Example 20, (1R,4R,7R)-2-{2-[1-(cyclopropylmethyl)-1H-pyrrolo[2,3-b]pyridin-2-yl]-7-methoxy-1-{[1-(2-methoxypyrimidin-4-yl)azetidin-3-yl]methyl}-1H-1,3-benzodiazole-5-carbonyl}-2-azabicyclo[2.2.1]heptan-7-amine]
  IC50: 57 nM

## COc1cc(C(=O)N2C[C@H]3CC[C@@H]2[C@@H]3N)cc2nc(-c3cc4ccccc4n3CC3CC3)n(CC3CN(C(=O)c4ccc(C)cc4)C3)c12 [Example 156, (1R,4R,7R)-2-{2-[1-(cyclopropylmethyl)-1H-indol-2-yl]-7-methoxy-1-{[1-(4-methylbenzoyl)azetidin-3-yl]methyl}-1H-1,3-benzodiazole-5-carbonyl}-2-azabicyclo[2.2.1]heptan-7-amine]
  IC50: 22 nM

## N#Cc1ccc(C(=O)N2CC(Cn3c(-c4cc5ccccc5n4CC4CC4)nc4cc(C(=O)N5C[C@H]6CC[C@@H]5[C@@H]6N)cc(F)c43)C2)cc1 [Example 92, 4-(3-((5-((1R,4R,7R)-7-amino-2-azabicyclo[2.2.1]heptane-2-carbonyl)-2-(1-(cyclopropylmethyl)-1H-indol-2-yl)-7-fluoro-1H-benzo[d]imidazol-1-yl)methyl)azetidine-1-carbonyl)benzonitrile]
  IC50: 12 nM

## COc1cc(C(=O)N2C[C@H](N)C[C@@H](F)C2)cc2nc(-c3cc4ccccc4n3CC3CC3)n(Cc3ccccn3)c12 [Example 293, (3R,5R)-1-{2-[1-(cyclopropylmethyl)-1H-indol-2-yl]-7-methoxy-1-[(pyridin-2-yl)methyl]-1H-1,3-benzodiazole-5-carbonyl}-5-fluoropiperidin-3-amine]
  IC50: 2660 nM

## CCn1cc(Cn2c(-c3cc4cccnc4n3CC3CC3)nc3cc(C(=O)N4CC5CCC4[C@@H]5N)cc(OC)c32)cn1 (stereo partly drawn) [Example 489, (7R)-2-{2-[1-(cyclopropylmethyl)-1H-pyrrolo[2,3-b]pyridin-2-yl]-1-[(1-ethyl-1H-pyrazol-4-yl)methyl]-7-methoxy-1H-1,3-benzodiazole-5-carbonyl}-2-azabicyclo[2.2.1]heptan-7-amine]
  IC50: 55 nM

## CNc1cc(C(=O)N2CC(Cn3c(-c4cc5ccccc5n4CC4CC4)nc4cc(C(=O)N5CC6CCC5[C@@H]6N)cc(OC)c43)C2)ccn1 (stereo partly drawn) [Example 412, (7R)-2-{2-[1-(cyclopropylmethyl)-1H-indol-2-yl]-7-methoxy-1-({1-[2-(methylamino)pyridine-4-carbonyl]azetidin-3-yl}methyl)-1H-1,3-benzodiazole-5-carbonyl}-2-azabicyclo[2.2.1]heptan-7-amine]
  IC50: 18 nM

## COc1cc(C(=O)N2C[C@H]3CC[C@@H]2[C@@H]3N)cc2nc(-c3cc4cccnc4n3CC3CC3)n(CC3CN(c4cccc(C#N)n4)C3)c12 [Example 21, 6-[3-({5-[(1R,4R,7R)-7-amino-2-azabicyclo[2.2.1]heptane-2-carbonyl]-2-[1-(cyclopropylmethyl)-1H-pyrrolo[2,3-b]pyridin-2-yl]-7-methoxy-1H-1,3-benzodiazol-1-yl}methyl)azetidin-1-yl]pyridine-2-carbonitrile]
  IC50: 57 nM

## COc1cc(C(=O)N2CCC[C@@H](N)C2)cc2nc(-c3cc4cccnc4n3CC3CC3)n([C@H]3C[C@H](N)C3)c12 [Example 300, (3R)-1-{2-[1-(cyclopropylmethyl)-1H-pyrrolo[2,3-b]pyridin-2-yl]-7-methoxy-1-[(1r,3r)-3-aminocyclobutyl]-1H-1,3-benzodiazole-5-carbonyl}piperidin-3-amine]
  IC50: 912 nM

## COc1cc(C(=O)N2CC3CCC2[C@@H]3N)cc2nc(-c3cc4ccccc4n3CC3CC3)n(Cc3cn(C)nc3C)c12 (stereo partly drawn) [Example 492, (7R)-2-{2-[1-(cyclopropylmethyl)-1H-indol-2-yl]-1-[(1,3-dimethyl-1H-pyrazol-4-yl)methyl]-7-methoxy-1H-1,3-benzodiazole-5-carbonyl}-2-azabicyclo[2.2.1]heptan-7-amine]
  IC50: 78 nM

## COc1cc(C(=O)N2CC3CCC2[C@@H]3N)cc2nc(-c3cc4ccccc4n3CC3CC3)n(Cc3cnn(-c4ccccn4)c3)c12 (stereo partly drawn) [Example 348, (7R)-2-{2-[1-(cyclopropylmethyl)-1H-indol-2-yl]-7-methoxy-1-{[1-(pyridin-2-yl)-1H-pyrazol-4-yl]methyl}-1H-1,3-benzodiazoie-5-carbonyl}-2-azabicyclo[2.2.1]heptan-7-amine]
  IC50: 14 nM

## COc1cc(C(=O)N2CC3CCC2[C@@H]3N)cc2nc(-c3cc4ccccc4n3CC3CC3)n(Cc3cnn(-c4cnc(O)c(F)c4)c3)c12 (stereo partly drawn) [Example 357, 5-[4-({5-[(7R)-7-amino-2-azabicyclo[2.2.1]heptane-2-carbonyl]-2-[1-(cyclopropylmethyl)-1H-indol-2-yl]-7-methoxy-1H-1,3-benzodiazol-1-yl}methyl)-1H-pyrazol-1-yl]-3-fluoropyridin-2-ol]
  IC50: 23 nM

## COc1cc(C(=O)N2C[C@H]3CC[C@@H]2[C@@H]3N)cc2nc(-c3cc4cccnc4n3CC3CC3)n(CC3CN(C(=O)C4CCC4)C3)c12 [Example 114, (1R,4R,7R)-2-{1-[(1-cyclobutanecarbonylazetidin-3-yl)methyl]-2-[1-(cyclopropylmethyl)-1H-pyrrolo[2,3-b]pyridin-2-yl]-7-methoxy-1H-1,3-benzodiazole-5-carbonyl}-2-azabicyclo[2.2.1]heptan-7-amine]
  IC50: 54 nM

## COc1cc(C(=O)N2CCC[C@@H](N)C2)cc2nc(-c3cc4ccccc4n3CC3CC3)n(Cc3cnn(C)c3)c12 [Example 267, (3R)-1-{2-[1-(cyclopropylmethyl)-1H-indol-2-yl]-7-methoxy-1-[(1-methyl-1H-pyrazol-4-yl)methyl]-1H-1,3-benzodiazole-5-carbonyl}piperidin-3-amine]
  IC50: 98 nM

## COc1cc(C(=O)N2CC3CCC2[C@@H]3N)cc2nc(-c3cc4cccnc4n3CC3CC3)n([C@H]3C[C@@H](NS(C)(=O)=O)C3)c12 (stereo partly drawn) [Example 297, N-[(1s,3s)-3-{5-[(1R,4R,7R)-7-amino-2-azabicyclo[2.2.1]heptane-2-carbonyl]-2-[1-(cyclopropylmethyl)-1H-pyrrolo[2,3-b]pyridin-2-yl]-7-methoxy-1H-1,3-benzodiazol-1-yl}cyclobutyl]methanesulfonamide]
  IC50: 2100 nM

## COc1cc(C(=O)N2C[C@H]3CC[C@@H]2[C@@H]3N)cc2nc(-c3cc4cccnc4n3CC3CC3)n(CC3CN(c4nnc(C)o4)C3)c12 [Example 56, (1R,4R,7R)-2-{2-[1-(cyclopropylmethyl)-1H-pyrrolo[2,3-b]pyridin-2-yl]-7-methoxy-1-{[1-(5-methyl-1,3,4-oxadiazol-2-yl)azetidin-3-yl]methyl}-1H-1,3-benzodiazole-5-carbonyl}-2-azabicyclo[2.2.1]heptan-7-amine]
  IC50: 166 nM

## COc1cc(C(=O)N2C[C@H]3CC[C@@H]2[C@@H]3N)cc2nc(-c3cc4cccnc4n3CC3CC3)n(CC3CN(C(=O)c4cnc(C#N)nc4)C3)c12 [Example 127, 5-[3-({5-[(1R,4R,7R)-7-amino-2-azabicyclo[2.2.1]heptane-2-carbonyl]-2-[1-(cyclopropylmethyl)-1H-pyrrolo[2,3-b]pyridin-2-yl]-7-methoxy-1H-1,3-benzodiazol-1-yl}methyl)azetidine-1-carbonyl]pyrimidine-2-carbonitrile]
  IC50: 109 nM
